Assay results: patent US20220202799A1, “PHARMACEUTICAL FORMULATIONS CONTAINING P2Y14 ANTAGONISTS” (priority 2019, published 2022)
“And” between values parts separate entries of the source, which are not always exact repeats. Identical values can stand only once. Like-named read-outs stand apart in the source and are kept apart here.

Assays:
[1] = Plasma concentrations and TK parameters, 72-hour continuous intravenous infusion; format: in vivo, Sprague-Dawley rats; settings: for concentration at 24 h / concentration at 48 h / concentration at 72 h / concentration at 78 h / concentration at 84 h / concentration at 96 h: male, Sprague-Dawley, rat, plasma, iv, 100 mg/kg, male Sprague-Dawley rats, 72-hour intravenous infusion at 100 mg/kg
Protocol: (§1) The safety and pharmacokinetics of PPTN (KB-1801) in rats receiving continuous intravenous injections of SBECD-containing solutions were analyzed. Three cohorts of six male and six female rats each were given continuous intravenous infusion of PPTN (KB-1801) at 10 mg/kg/day, 30 mg/kg/day or 100 mg/kg/day in a dosing solution containing PPTN at 0.25 mg/mL, 0.75 mg/mL or 2.5 mg/mL and SBECD at about 3.8%. Dosing volume was 40 mIkg/day. [table]

[2] = Urine concentrations, 24-hour continuous intravenous infusion; format: in vivo, Sprague-Dawley rats; settings: for Total amount in urine: all intervals; for Total amount in urine / Amount in urine: individual animals
Protocol: as §1, with “mIkg/day.” for “mIkg/day. [table]”

[3] = read-out: Plasma concentration, Mean
[4] = read-out: Plasma concentration, individual animal

## O=C(O)c1cc(-c2ccc(C3CCNCC3)cc2)c2ccc(-c3ccc(C(F)(F)F)cc3)cc2c1 [KB-1801, 4-[4-(piperidin-4-yl)phenyl]-7-[4-(trifluoromethyl)phenyl]-2-naphthoic acid]
[1]; [3]
  concentration at 24 h: 9550 ng/mL
  concentration at 48 h: 7030 ng/mL
  concentration at 72 h: 9790 ng/mL
  concentration at 78 h: 2640 ng/mL
  concentration at 84 h: 2230 ng/mL
  concentration at 96 h: 471 ng/mL
[1]; [4]
  concentration at 24 h: 10300 ng/mL
  concentration at 48 h: 7400 ng/mL
  concentration at 72 h: 11800 ng/mL
  concentration at 78 h: 3220 ng/mL
  concentration at 84 h: 2650 ng/mL
  concentration at 96 h: 598 ng/mL
[1]; rats, continuous intravenous infusion
  Time for plasma PPTN concentrations to reach steady state: ≤ 24 h
[1]; rats, continuous intravenous infusion 10, 30, 100 mg/kg/day
  Plasma PPTN concentrations, relation to dose: linearly dose-related
[2]; 24-hour IV infusion 10 mg/kg, female rats
  Total amount in urine: 6.29 µg and 1.92 µg and 6.27 µg and 24.6 µg and 20.3 µg and 2.33 µg
[2]; 24-hour IV infusion 10 mg/kg, female rats, interval 0-4 h
  Amount in urine: 0.16 µg and 0.14 µg and 0.81 µg and 4.98 µg and 2.11 µg
[2]; 24-hour IV infusion 10 mg/kg, female rats, interval 4-9 h
  Amount in urine: 5.74 µg and 1.32 µg and 11.2 µg and 0.05 µg and 0.23 µg
[2]; 24-hour IV infusion 10 mg/kg, female rats, interval 9-24 h
  Amount in urine: 0.39 µg and 0.46 µg and 5.46 µg and 13.4 µg and 15.3 µg
[2]; 24-hour IV infusion 30 mg/kg, female rats
  Total amount in urine: 22.6 µg and 2.00 µg and 6.83 µg and 40.2 µg and 30.9 µg and 57.2 µg
[2]; 24-hour IV infusion 30 mg/kg, female rats, interval 0-4 h
  Amount in urine: 8.76 µg and 2.00 µg and 0.003 µg and 7.08 µg and 0.71 µg
[2]; 24-hour IV infusion 30 mg/kg, female rats, interval 4-9 h
  Amount in urine: 9.17 µg and 16.2 µg and 22.6 µg and 29.6 µg
[2]; 24-hour IV infusion 30 mg/kg, female rats, interval 9-24 h
  Amount in urine: 27.6 µg and 4.65 µg and 6.83 µg and 17.0 µg and 7.56 µg
[2]; 24-hour IV infusion 30 mg/kg, male rats
  Total amount in urine: 61.7 µg and 63.3 µg and 9.64 µg and 18.1 µg and 243.3 µg and 31.4 µg
[2]; 24-hour IV infusion 30 mg/kg, male rats, interval 0-4 h
  Amount in urine: 0.01 μg (3×) and 2.03 μg and 0.001 μg and 33.9 μg
[2]; 24-hour IV infusion 30 mg/kg, male rats, interval 4-9 h
  Amount in urine: 26.0 µg and 43.8 µg and 5.65 µg and 0.003 µg and 11.8 µg and 21.8 µg
[2]; 24-hour IV infusion 30 mg/kg, male rats, interval 9-24 h
  Amount in urine: 9.64 µg and 35.7 µg and 17.4 µg and 3.98 µg and 18.1 µg and 197.6 µg
[2]; 24-hour IV infusion 100 mg/kg, female rats
  Total amount in urine: 45.8 µg and 48.8 µg and 64.7 µg and 43.0 µg and 149.9 µg and 171.6 µg
[2]; 24-hour IV infusion 100 mg/kg, female rats, interval 0-4 h
  Amount in urine: 0.02 µg and 0.01 µg and 9.75 µg and 3.61 µg and 25.6 µg and 10.7 µg
[2]; 24-hour IV infusion 100 mg/kg, female rats, interval 4-9 h
  Amount in urine: 1.83 µg and 19.3 µg and 5.96 µg and 0.01 µg and 27.4 µg
[2]; 24-hour IV infusion 100 mg/kg, female rats, interval 9-24 h
  Amount in urine: 133.5 µg and 43.9 µg and 48.8 µg and 35.7 µg and 33.4 µg and 124.3 µg
[2]; 24-hour IV infusion 100 mg/kg, male rats
  Total amount in urine: 239.6 µg and 82.2 µg and 0.001 µg and 186.8 µg and 228.4 µg and 526.5 µg
[2]; 24-hour IV infusion 100 mg/kg, male rats, interval 0-4 h
  Amount in urine: 0.12 µg and 40.8 µg and 51.3 µg
[2]; 24-hour IV infusion 100 mg/kg, male rats, interval 4-9 h
  Amount in urine: 33.6 µg and 26.0 µg and 0.001 µg and 24.1 µg and 32.1 µg and 71.5 µg
[2]; 24-hour IV infusion 100 mg/kg, male rats, interval 9-24 h
  Amount in urine: 403.7 µg and 206.0 µg and 56.1 µg and 162.6 µg and 155.6 µg
[2]; male Sprague-Dawley rats, 24-hour intravenous infusion at 10 mg/kg, 0-24 h, 10 mg/kg
  Total amount in urine, individual animal: 45.5 µg and 49.8 µg and 14.8 µg and 67.4 µg and 19.0 µg and 3.25 µg
[2]; male Sprague-Dawley rats, 24-hour intravenous infusion at 10 mg/kg, time interval 0-4 h, 10 mg/kg
  Amount in urine, individual animal: 5.36 µg and 2.11 µg and 2.02 µg and 11.1 µg and 0.03 µg
[2]; male Sprague-Dawley rats, 24-hour intravenous infusion at 10 mg/kg, time interval 4-9 h, 10 mg/kg
  Amount in urine, individual animal: 4.47 µg and 0.35 µg and 6.15 µg and 0.52 µg
[2]; male Sprague-Dawley rats, 24-hour intravenous infusion at 10 mg/kg, time interval 9-24 h, 10 mg/kg
  Amount in urine, individual animal: 3.23 µg and 35.7 µg and 47.3 µg and 6.64 µg and 56.3 µg and 18.5 µg
[2]; rats, continuous intravenous infusion for 24 or 72 hours
  Urine concentration compared with plasma: generally in excess of plasma concentrations
